This is an account of results in US10512654B2, “Pharmaceutical composition including dutasteride and capsule formulation comprising the same” (YUYU PHARMA, INC., priority 2015, dated 2019).

Holding throughout (format): physicochemical
A short description of data set [1]: Stability of dutasteride in mixture of oil and surfactant (Test Example 3). The note with it: storage condition not given. Here is the method: A stability test on the pharmaceutical composition of the comparative example dissolving 0.5 mg of dutasteride in a mixture of 95 mg of propylene glycol monocaprylate and 5 mg of polyoxyl 35 castor oil and stored in a transparent vial, and the pharmaceutical composition of the example including dutasteride, propylene glycol monolaurate and polyoxyl 35 castor oil was carried out by identifying the generation of degradation products under an accelerated condition (40° C., 75% RH) and a stress condition (50° C. 95% RH). As shown in the following Table 5, it was seen that the mixture of propylene glycol monolaurate and a surfactant secured the stability of dutasteride unlike mixtures of surfactant with other oils such as propylene glycol monocaprylate.

The nature of data set [2]: Test I on stability of dutasteride depending on oil type (Test Example 2). How it is done: As samples used in the comparison test, a sample dissolving 1.0 mg of dutasteride in 10.0 mg of propylene glycol monolaurate and stored in a transparent vial, and a sample dissolving 1.0 mg of dutasteride in 10.0 mg of caprylic/capric acid mono-di-glyceride and stored in a transparent vial were used.

Data set [3] is described as follows: Solubility of dutasteride in oil (Test Example 1). The note with it: for solubility at 24 h: oil or lipid, thermodynamic from solid. How it is done: In order to measure the solubility of dutasteride in oil, the solubility of dutasteride in soybean oil, castor oil, propylene glycol dicaprylate, propylene glycol dicaprate and propylene glycol monolaurate was measured. In a 10 mL vial, a magnetic bar was placed. After 3 mL of the oil was added thereto, approximately 100 mg of dutasteride was added thereto while stirring under a room temperature (25° C.) condition, and the resultant mixture was stirred with 500 rpm or higher. After stirring for 24 hours, 1 mL of the resultant mixture was taken and separated using a centrifuge, and only the supernatant was taken to quantify the amount of dutasteride dissolved in the oil using liquid chromatography.

[4] abbreviates: in Propylene Glycol Monocaprylate + Polyoxyl 35 Castor Oil.
Where [5] appears, read: in Propylene Glycol Monolaurate + Polyoxyl 35 Castor Oil.

Values after ≈ are worked out from the molar mass of the structure shown.

Usually solubility stands for how much of the substance goes into solution per volume. A low value points to a poorly soluble substance. In the case of `C[C@]12C=CC(=O)N[C@@H]1CC[C@@H]1[C@@H]2CC[C@]2(C)[C@@H](C(=O)Nc3cc(C(F)(F)F)ccc3C(F)(F)F)CC[C@@H]12` [Dutasteride, 17β-N-(2,5-bis(trifluoromethyl))phenylcarbamoyl-4-aza-5α-androst-1-en-3-one], the “Amount of Degradation Products (%) After 3 Weeks” value in data set [1] (setting [4]) was 6.2%; in data set [1] (setting [5]), “None”. In addition, the “Amount of Degradation Products (%) After 4 Weeks” value in data set [1] (setting [4]) is 12.1%; in data set [1] (setting [5]), “None”; in data set [2] (in Caprylic/Capric Acid Mono-Di-Glyceride, Accelerated Condition (40° C., 75% RH)), 0.94%; in data set [2] (in Caprylic/Capric Acid Mono-Di-Glyceride, Stress Condition (50° C., 95% RH)) it was 1.75%; in data set [2] (in Propylene Glycol Monolaurate, Accelerated Condition (40° C., 75% RH)), “None”; in data set [2] (in Propylene Glycol Monolaurate, Accelerated Condition (40° C., 75% RH), listed as dutasteride), “not generated”. Moreover, the “Amount of Degradation Products (%) After 4 Weeks” value in data set [2] (in Propylene Glycol Monolaurate, Stress Condition (50° C., 95% RH)) is recorded as 0.32%. Also, the “Stability of dutasteride in propylene glycol monolaurate compared to caprylic/capric acid mono-di-glyceride” value in data set [2] (week 4, accelerated (40° C., 75% RH) and stress condition (50° C., 95% RH), in words) was “more superior”. For the same compound, in data set [3] (in Propylene Glycol Dicaprylate, room temperature (25° C.), stirring for 24 hours), the “Solubility of Dutasteride” value is 1130 µg/mL. In addition, the solubility at 24 h is 770 µg/mL (≈ 1.46 mM) in data set [3] (in Propylene Glycol Dicaprate, room temperature (25° C.), stirring for 24 hours) and 10400 µg/mL (≈ 19.7 mM) in data set [3] (in Propylene Glycol Monolaurate, room temperature (25° C.), stirring for 24 hours). Also, the “Solubility in propylene glycol monolaurate compared to other tested oils” value in data set [3] (propylene glycol monolaurate vs other tested (general) oils) was no less than 10 times.
